Experimental findings from patent US20250230165A1, “HETEROCYCLIC COMPOUNDS FOR USE IN THE TREATMENT OF CANCER” (ARTIOS PHARMA LIMITED, priority 2021, published 2025) are described below.

The structures appear in SMILES notation.

This assay concerns the target T1, Human Polθ polymerase domain (aa1820-2590) (Homo sapiens, UniProt O75417).
T1 construct: Human Polθ polymerase domain (aa1820-2590) was expressed in E. coli; made in house; host or cells: E. coli
T1 sequence (O75417 1820-2590): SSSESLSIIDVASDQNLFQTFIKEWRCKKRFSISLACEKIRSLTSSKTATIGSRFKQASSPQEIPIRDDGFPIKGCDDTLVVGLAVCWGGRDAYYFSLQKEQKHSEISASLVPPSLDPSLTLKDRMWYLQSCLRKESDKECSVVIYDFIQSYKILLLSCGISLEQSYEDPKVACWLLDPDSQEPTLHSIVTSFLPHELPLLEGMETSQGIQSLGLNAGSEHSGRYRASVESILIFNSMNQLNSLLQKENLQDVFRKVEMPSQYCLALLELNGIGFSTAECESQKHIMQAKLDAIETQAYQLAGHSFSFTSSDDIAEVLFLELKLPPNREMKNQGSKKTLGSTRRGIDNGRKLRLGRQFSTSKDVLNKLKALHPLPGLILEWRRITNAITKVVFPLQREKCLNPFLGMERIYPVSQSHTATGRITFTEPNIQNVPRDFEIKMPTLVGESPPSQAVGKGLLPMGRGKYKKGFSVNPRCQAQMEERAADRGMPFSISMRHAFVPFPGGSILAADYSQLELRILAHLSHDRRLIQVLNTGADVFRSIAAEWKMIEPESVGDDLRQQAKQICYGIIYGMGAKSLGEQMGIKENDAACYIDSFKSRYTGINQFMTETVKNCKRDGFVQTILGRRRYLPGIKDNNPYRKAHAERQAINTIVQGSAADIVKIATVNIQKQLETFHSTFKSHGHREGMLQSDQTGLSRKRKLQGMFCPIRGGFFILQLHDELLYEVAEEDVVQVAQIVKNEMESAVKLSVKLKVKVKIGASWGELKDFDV
Kind of assay: Polθ Polymerase Domain Kinact/KI Assay (PicoGreen). The following applies: 0.8 nM Polθ, 100 nM DNA substrate, kobs vs [I] fit for 2-step covalent inhibitor. The assay is classed as biochemical. The method, boiled down: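 Covalent inhibitors were tested against E. coli-expressed enzyme (0.8 nM final) with 100 nM annealed DNA substrate and […] in Tris pH 7.5 buffer, 1% DMSO. Reactions were EDTA-quenched over a 0–60 min time course and product DNA detected by PicoGreen fluorescence.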
As for `C=CC(=O)N1CC(=O)N2CCN(CCN3C[C@H]4CC(=O)N(c5cc(C(F)(F)F)cc(C)n5)[C@@H]4C(=O)N(C)c4cccc(F)c43)CC2C1` (mixture of isomers) [Example 62b, (3aR,11aS)-5-(2-((S/R)-8-acryloyl-6-oxooctahydro-2H-pyrazino[1,2-a]pyrazin-2-yl)ethyl)-6-fluoro-10-methyl-1-(6-methyl-4-(trifluoromethyl)pyridin-2-yl)-1,3a,4,5,10,11a-hexahydro-2H-benzo[b]pyrrolo[2,3-f][1,4]diazocine-2,11(3H)-dione], the Kinact/Kl turned out to be 1.26e+06 M⁻¹ s⁻¹.

Turning to `C=CC(=O)NC1CCN(CCN2C[C@H]3CC(=O)N(c4cc(C(F)(F)F)cc(C)n4)[C@@H]3C(=O)N(C)c3cccc(Cl)c32)CC1(F)F` (mixture of isomers) [Example 257b, N—((R/S)-1-(2-((3aR,11aS)-6-chloro-10-methyl-1-(6-methyl-4-(trifluoromethyl)pyridin-2-yl)-2,11-dioxo-1,2,3,3a,4,10,11,11a-octahydro-5H-benzo[b]pyrrolo[2,3-f][1,4]diazocin-5-yl)ethyl)-3,3-difluoropiperidin-4-yl)acrylamide], the Kinact/Kl was determined as 2.56e+06 M⁻¹ s⁻¹.

As for `C=CC(=O)N1Cc2nc(CN3C[C@H]4CC(=O)N(c5cc(C(F)(F)F)cc(C)n5)[C@@H]4C(=O)N(C)c4cccc(Cl)c43)cn2C[C@H]1C` (racemic) [Example 143b, (3aR,11aS)-5-(((S/R)-7-acryloyl-6-methyl-5,6,7,8-tetrahydroimidazo[1,2-a]pyrazin-2-yl)methyl)-6-chloro-10-methyl-1-(6-methyl-4-(trifluoromethyl)pyridin-2-yl)-1,3a,4,5,10,11a-hexahydro-2H-benzo[b]pyrrolo[2,3-f][1,4]diazocine-2,11(3H)-dione], the Kinact/Kl came out at 2.32e+06 M⁻¹ s⁻¹.

For the molecule `C=CC(=O)N1CC(N2CCN(CCN3C[C@H]4CC(=O)N(c5cc(C(F)(F)F)cc(C)n5)[C@@H]4C(=O)N(C)c4cc(F)cc(Cl)c43)CC2)C1` [Example 17, (3aR,11aS)-5-(2-(4-(1-acryloylazetidin-3-yl)piperazin-1-yl)ethyl)-6-chloro-8-fluoro-10-methyl-1-(6-methyl-4-(trifluoromethyl)pyridin-2-yl)-1,3a,4,5,10,11a-hexahydro-2H-benzo[b]pyrrolo[2,3-f][1,4]diazocine-2,11(3H)-dione], the Kinact/Kl came out at 1.19e+06 M⁻¹ s⁻¹.

The molecule `C=C(CN(C)C)C(=O)N[C@H]1CCn2cc(CN3C[C@H]4CC(=O)N(c5cc(C(F)(F)F)cc(C)n5)[C@@H]4C(=O)N(C)c4cccc(C)c43)nc2C1` (racemic) [Example 330a, N-((S/R)-2-(((3aR, 11aS)-6,10-dimethyl-1-(6-methyl-4-(trifluoromethyl)-pyridin-2-yl)-2,11-dioxo-1,2,3,3a,4,10, 11,11a-octahydro-5H-benzo[b]pyrrolo [2,3-f][1,4]diazocin-5-yl)methyl)-5,6,7,8-tetrahydroimidazo [1,2-a]pyridin-7-yl)-2-((dimethylamino)-methyl)acrylamide] showed a Kinact/Kl of 2.74e+06 M⁻¹ s⁻¹.

The molecule `C=C(CN(C)C)C(=O)N1CC(OCCCN2C[C@H]3CC(=O)N(c4cc(C(F)(F)F)cc(C)n4)[C@@H]3C(=O)Nc3cccc(C)c32)C1` [Example 191, (3aR,11aS)-5-(3-((1-(2-((dimethyl-amino)methyl)-acryloyl)azetidin-3-yl)oxy)propyl)-6-methyl-1-(6-methyl-4-(trifluoro-methyl)pyridin-2-yl)-1,3a,4,5,10, 11a-hexahydro-2H-benzo[b]pyr-rolo[2,3-f][1,4] diazocine-2, 11(3H)-dione] displayed a Kinact/Kl of 1.4e+06 M⁻¹ s⁻¹.

In turn, `C=CC(=O)N1CC(N2CCO[C@H]3CN(CCN4C[C@H]5CC(=O)N(c6cc(C(F)(F)F)cc(C)n6)[C@@H]5C(=O)N(C)c5cccc(F)c54)C[C@@H]32)C1` (single isomer, unassigned) [Example 22a] returned a Kinact/Kl of 170000 M⁻¹ s⁻¹.

As to `C=CC(=O)N1CCN(CCCN2C[C@H]3CC(=O)N(c4cc(C(F)(F)F)cc(C)n4)[C@@H]3C(=O)N(C)c3cccc(C)c32)CC1C(F)(F)F` (mixture of isomers) [Example 265b, (3aR,11aS)-5-(3-((R/S)-4-acryloyl-3-(trifluoromethyl)piperazin-1-yl)propyl)-6,10-dimethyl-1-(6-methyl-4-(trifluoromethyl)pyridin-2-yl)-1,3a,4,5,10,11a-hexahydro-2H-benzo[b]pyrrolo[2,3-f][1,4]diazocine-2,11(3H)-dione], the Kinact/Kl is 1.58e+06 M⁻¹ s⁻¹.
